Results published in ChEMBL document CHEMBL4808194, “Design, synthesis and biological evaluation of novel 2,4-disubstituted quinazoline derivatives targeting H1975 cells via EGFR-PI3K signaling pathway” (Bioorg Med Chem, 2021).

Key:
Test in all cases: cells
Assay type in all cases: functional, cell-based
MGC-803 = conditions: Homo sapiens, MGC-803, 72 h
Description: Antiproliferative activity against human MGC-803 cells assessed as inhibition of cell growth incubated for 72 hrs by MTT assay

MDA-MB-231 = conditions: Homo sapiens, MDA-MB-231, 72 h
PC-3 = conditions: Homo sapiens, PC-3, 72 h
Description: Antiproliferative activity against human PC-3 cells assessed as inhibition of cell growth incubated for 72 hrs by MTT assay

NCI-H1975 = conditions: Homo sapiens, NCI-H1975, 72 h
Description: Antiproliferative activity against human NCI-H1975 cells assessed as inhibition of cell growth incubated for 72 hrs by MTT assay

SMILES	IC50 (MGC-803) [µM]	IC50 (MDA-MB-231) [µM]	IC50 (PC-3) [µM]	IC50 (NCI-H1975) [µM]
C=CC(=O)Nc1cccc(NC(=O)CSc2nc(Nc3cccc(C)c3)c3ccccc3n2)c1	20.9	16.8	29.2	12.1
O=C(CSc1nc(Nc2ccccc2)c2ccccc2n1)Nc1ccc(Cl)cc1	40.4	17.2	12.8	8.04
C=CC(=O)Nc1cccc(NC(=O)CSc2nc(Nc3cccc(Cl)c3)c3ccccc3n2)c1	7.83	16.3	12.3	9.46
O=C(CSc1nc(Nc2ccccc2)c2ccccc2n1)Nc1ccc([N+](=O)[O-])cc1	> 50	16.8	25	13
C=CC(=O)Nc1cccc(NC(=O)CSc2nc(Nc3ccc(Cl)cc3Cl)c3ccccc3n2)c1	12.1	23.1	25.7	5.99
C=CC(=O)Nc1cccc(NC(=O)CSc2nc(Nc3cccc([N+](=O)[O-])c3)c3ccccc3n2)c1	> 50	> 50	46.3	22.6
C=CC(=O)Nc1cccc(NC(=O)CSc2nc(Nc3ccc(F)cc3)c3ccccc3n2)c1	8.29	9.49	8.24	4.43
C=CC(=O)Nc1cccc(NC(=O)CSc2nc(Nc3ccc(Cl)c(Cl)c3)c3ccccc3n2)c1	> 50	17.7	27.6	19.1
O=C(CSc1nc(Nc2ccccc2)c2ccccc2n1)Nc1ccccc1Br	18.6	14.1	19.8	10.3
C=CC(=O)Nc1cccc(NC(=O)CSc2nc(Nc3cccc(Br)c3)c3ccccc3n2)c1	11.9	19.4	15	12.1
CCc1cccc(NC(=O)CSc2nc(Nc3ccccc3)c3ccccc3n2)c1	15.8	12.4	11	12
C=CC(=O)Nc1cccc(NC(=O)CSc2nc(Nc3ccc(F)c(Cl)c3)c3ccccc3n2)c1	7.85	10.6	> 50	> 50
O=C(CSc1nc(Nc2ccccc2)c2ccccc2n1)Nc1cccc(F)c1	12.7	> 50	15.6	6.79
C=CC(=O)Nc1cccc(NC(=O)CSc2nc(Nc3cc(OC)c(OC)c(OC)c3)c3ccccc3n2)c1	> 50	> 50	> 50	> 50
O=C(CSc1nc(Nc2ccccc2)c2ccccc2n1)Nc1cccc(Br)c1	9.62	17.5	11.4	10.1
C=CC(=O)Nc1cccc(NC(=O)CSc2nc(Nc3ccccc3Br)c3ccccc3n2)c1	12.8	15.2	17.1	19.3
C=CC(=O)Nc1cccc(NC(=O)CSc2nc(Nc3ccccc3F)c3ccccc3n2)c1	26.1	18.7	9.34	6.58
O=C(CSc1nc(Nc2ccccc2)c2ccccc2n1)Nc1ccc(F)cc1	> 50	34.1	9.56	16.5
C=CC(=O)Nc1cccc(NC(=O)CSc2nc(Nc3cccc(OC)c3)c3ccccc3n2)c1	24.2	12.9	34.9	7.94

SMILES	IC50 (MGC-803) [µM]	IC50 (MDA-MB-231) [µM]	IC50 (PC-3) [µM]	IC50 (NCI-H1975) [µM]
O=C(CSc1nc(Nc2ccccc2)c2ccccc2n1)Nc1cccc([N+](=O)[O-])c1	28.1	33	11.8	17.9
O=C(CSc1nc(Nc2ccccc2)c2ccccc2n1)Nc1ccc(C(F)(F)F)cc1	8.67	11.1	10.4	11.7
O=C(CSc1nc(Nc2ccccc2)c2ccccc2n1)Nc1ccccc1Cl	24.8	24.4	14.6	9.61
O=C(CSc1nc(Nc2ccccc2)c2ccccc2n1)Nc1ccc(Br)cc1	19.3	11.5	8.45	10.6
C=CC(=O)Nc1cccc(NC(=O)CSc2nc(Nc3ccc(CC)cc3)c3ccccc3n2)c1	8.01	14.4	24.3	8.27
O=C(CSc1nc(Nc2ccccc2)c2ccccc2n1)Nc1ccc(F)c(Cl)c1	20.9	21.6	15.5	9.39
CCc1ccc(NC(=O)CSc2nc(Nc3ccccc3)c3ccccc3n2)cc1	> 50	33.9	17.9	9.91
O=C(CSc1nc(Nc2ccccc2)c2ccccc2n1)Nc1ccccc1F	10.7	> 50	12.4	9.35
C=CC(=O)Nc1cccc(NC(=O)CSc2nc(Nc3ccc(Cl)cc3)c3ccccc3n2)c1	14.3	10.3	10.8	7.58
C=CC(=O)Nc1cccc(NC(=O)CSc2nc(Nc3ccccc3)c3ccccc3n2)c1	7.31	10.2	8.74	8.12
O=C(CSc1nc(Nc2ccccc2)c2ccccc2n1)Nc1ccc(Cl)c(Cl)c1	37.9	14.5	12.1	10.4
C=CC(=O)Nc1cccc(NC(=O)CSc2nc(Nc3ccc(C(F)(F)F)cc3)c3ccccc3n2)c1	12.1	11.5	12.5	12.9
C=CC(=O)Nc1cccc(NC(=O)CSc2nc(Nc3ccc(Br)cc3)c3ccccc3n2)c1	11.5	17.2	12.4	6.28
C=CC(=O)Nc1cccc(NC(=O)CSc2nc(Nc3ccccc3C)c3ccccc3n2)c1	30.2	20.4	23.2	9.92
COc1cccc(NC(=O)CSc2nc(Nc3ccccc3)c3ccccc3n2)c1	10	21.7	11.6	19.4
C=CC(=O)Nc1cccc(NC(=O)CSc2nc(Nc3ccccc3Cl)c3ccccc3n2)c1	20.7	12.7	14.4	10
O=C(CSc1nc(Nc2ccccc2)c2ccccc2n1)Nc1ccc(Cl)cc1Cl	12.3	19.4	9.11	8.41
O=C(CSc1nc(Nc2ccccc2)c2ccccc2n1)Nc1cccc(Cl)c1	14.3	16.5	12.6	8.46
